According to patent publication US3963707A, “Novel N-nitroso compounds, compositions containing such compounds, processes for their preparation and methods of treatment therewith, and novel intermediates” (Aktiebolaget Leo, priority 1973, dated 1976):
Read-outs that look alike come from different tables or passages of the source.

Key:
Adenocarcinoma 755 = details: result in words; cited from earlier work
[1] = acute intraperitoneal toxicity in mice; cited from earlier work
[2] = system: lymphoid leukemia (L 1210); details: result in words; cited from earlier work
Sarcoma 180 = details: result in words; cited from earlier work
[3] = system: Lymphatic leukemia L 1210; experiment: Lymphatic leukemia L 1210 test; type: in vivo, CDF1 (C3H×DBA/2)F1 mice; details: for Effect %: survival time as percentage of control; for Weight change v: vs control up to the 5th day; for effect on L 1210: result in words, dose not given
Text: (§1) The experimental design and the interpretation of the results have been in accordance with the standards set by the CCNSC (Cancer Chemotherapy Reports, January 1959 and December 1962), and by the DR&D (Cancer Chemotherapy Reports, September 1972, Vol. 3, No. 2).
(§2) The way of administration is by the intraperitoneal route (i.p.) in each case.
Lymphatic leukemia L 1210
Experimental animals: CDF1 (C3H×DBA/2)F1 mice.
Tumour implant: 10^5 tumour cells i.p.
Therapy: One injection i.p. on the day following implantation.
Evaluation: a) The survival time of the test animals (t) expressed as the percentage of that of control animals (c).
b. Weight change in the test animals (T) compared with that of the control animals (c) up to the 5th day.
c. The mortality rate must not exceed 35% in the test animals on the 5th day of therapy.

[4] = system: Ehrlich ascites tumour, ELD hyperdiploid (46 chromosomes); experiment: Ehrlich ascites tumour test (LD50, ED50, therapeutic index); type: in vivo, SPF NMRI mice; details: for anti-tumor activity: additional compounds, result in words
Method in brief: (§3)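 SPF NMRI mice implanted i.p. with 2 × 10^6 Ehrlich ascites (ELD hyperdiploid) cells and given a single i.p. dose the next day; killed on day 8. ED50 = dose halving tumour weight versus controls, LD50 = dose lethal to 50%; T.I. = LD50/ED50.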

ventral prostate [5] = experiment: Androgenic effect in castrated male rats; type: in vivo; details: subcutanous and intraperitoneal administration, 7 days
Protocol: The androgenic and estrogenic activities, as described below, are determined with established methods (see e.g. Dorfman, R.: Methods in Hormone Research, vol. II, Acad. Press, New York and London 1962, pp. 93 and 275).
The androgenic effect is assayed in castrated male rats. Beginning two weeks after castration the animals are given one daily injection of the compound for 7 days. The weight of the ventral prostate is determined on the 8th day.

[6] = system: Walker carcinosarcoma 256; experiment: Walker carcinosarcoma 256 test; type: in vivo, Sprague Dawley rats; details: 5×250 mg/kg i.p.; for Lethality: died/used animals
Text: as §1, §2
Walker carcinosarcoma 256
Experimental animals: Sprague Dawley rats.
Tumour implant: Tumour pieces with 2-4 mm diameter, subcutaneously.
Therapy: Daily injections i.p. for 5 days starting on the day following implantation.
Termination: The animals are killed on the 9th day.
Evaluation: Weights of tumours of test animals are compared with those of control animals. The differences, in per cent of weights of tumours of control animals, give per cent tumour inhibition.
The lethality is given as the number of animals which died in the experiment/the number of animals used in the experiments.

in vivo = experiment: in vivo; design: species or system SPF Wistar rats; details: rat, in vivo, ip; one injection i.p., rats; dose causing 50 percent lethality
Method in brief: (§4)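 Therapeutic index (LD50/ED50) was derived from tumour weight against controls at day-8 sacrifice, with ED50 the dose giving 50% tumour reduction. Rats (SPF Wistar) bore 5 × 10^6 hepatoma cells implanted intraperitoneally. A single i.p. injection followed on the day after implantation.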

Hepatoma AH 130 = experiment: in vivo; design: species or system SPF Wistar rats; details: for ED50: Rattus norvegicus, ip, 192 h, one injection i.p. day after implantation, dose causing 50 percent reduction of tumour size; for anti-tumor activity: additional compounds, result in words
Method in brief: as §4

[7] = Ehrlich ascites tumour test (LD50, ED50, therapeutic index); type: in vivo, SPF NMRI mice; details: mouse, in vivo, ip; one injection i.p., mice; dose causing 50 percent lethality
Method in brief: as §3

[8] = Thymolytic effect according to A. C. Hilger (assay 8); details: in vivo
Text: Thymolytic effect according to A. C.

ventral prostate [9] = details: as reported in the literature; cited from earlier work
[10] = Progestational activity in the Clanberg test; type: in vivo; details: standard scale of McPhail
Walker 256 = details: result in words; cited from earlier work

For `CCOC(=O)N(CCCl)N=O` [C2 H5 --], the “activity against Adenocarcinoma 755” value (Adenocarcinoma 755) is listed as “inactive”, the LD50 [1] is listed as 2 mg/kg and the “activity against lymphoid leukemia (L 1210)” value [2] is listed as “inactive”. The “activity against Sarcoma 180” value (Sarcoma 180) was “inactive”.
For `C[C@]12CC[C@H]3[C@@H](CCC4=CC(=O)CC[C@@]43C)[C@@H]1CC[C@@H]2OC(=O)N(CCCl)N=O` [testosterone-17β-N-(2-chloroethyl)-N-nitroso carbamate], the Mortality ([3]; 1×125 mg/kg i.p.) was 0/40, the Effect % ([3]; 1×125 mg/kg i.p.) was 125% and the Weight change v ([3]; 1×125 mg/kg i.p.) was -1.8 g. The anti-tumor activity [4] was “exhibit anti-tumor activity”, the “androgenic effect compared with testosterone” value (ventral prostate [5]) was “about the same androgenic effect as testosterone” and the Tumour inhibition % [6] was 64%. The Lethality [6] was 0/8, the LD50 (in vivo) was > 1000 mg/kg and the “T.I. (LD50/ED50)” value (Hepatoma AH 130; Hepatoma AH 130, rats, i.p.) was > 100. The ED50 (Hepatoma AH 130) was 8 mg/kg.
For `C[C@]12CC[C@H](OC(=O)N(CCCl)N=O)CC1=CC[C@@H]1[C@@H]2CC[C@]2(C)C(=O)CC[C@@H]12` [dehydroepiandrosterone-3β-N-(2-chloroethyl)-N-nitroso carbamate], the Mortality ([3]; 1×500 mg/kg i.p.) was 0/40, the Effect % ([3]; 1×500 mg/kg i.p.) was 143% and the Weight change v ([3]; 1×500 mg/kg i.p.) was -2.5 g. The LD50 [7] was > 1000 mg/kg, the “T.I. (LD50/ED50)” value ([4]; Ehrlich ascites, mice, i.p.) was > 102 and the ED50 ([4]; Mus musculus, Ehrlich, ip, one injection i.p. day after implantation, dose causing 50 percent reduction of tumour size, read-out: ED50) was 98 mg/kg. The “androgenic effect compared with testosterone” value (ventral prostate [5]) was “somewhat weaker androgenic effect”, the Tumour inhibition % [6] was 66% and the Lethality [6] was 0/16. The LD50 (in vivo) was > 1000 mg/kg and the ED50 (Hepatoma AH 130) was 0.4 mg/kg.
For `C[C@]12C=CC(=O)C=C1CC[C@@H]1[C@@H]2[C@@H](O)C[C@@]2(C)[C@H]1CC[C@]2(O)C(=O)COC(=O)N(CCCl)N=O` [prednisolone-21-N-(2-chloroethyl)-N-nitroso carbamate], the “effect on L 1210” value [3] was “show a significant effect”, the anti-tumor activity [4] was “exhibit anti-tumor activity” and the anti-tumor activity (Hepatoma AH 130) was “exhibit anti-tumor activity”. For the same compound, the “thymolytic activity compared with prednisolone acetate” value [8] was “about the same activity as prednisolone acetate”.
For `C[C@]12CC[C@H](O)CC1=CC[C@@H]1[C@@H]2CC[C@]2(C)C(=O)CC[C@@H]12` [dehydroepiandrosterone, androst-5-en-3β-ol-17-one], the “androgenic effect compared with testosterone” value (ventral prostate [9]) is given as “weaker androgenic effect”.
For `C#C[C@]1(OC(C)=O)CC[C@H]2[C@@H]3CCC4=C[C@@H](OC(=O)N(C(=O)N(CCCl)N=O)C5CCCCC5)CC[C@@H]4[C@H]3CC[C@@]21C` [ethynodiol-17β-acetate-3β-/N^2-cyclohexyl-N^4-(2-chloroethyl)-N^4-nitroso allophanate/], the anti-tumor activity [4] was “exhibit anti-tumor activity”, the anti-tumor activity (Hepatoma AH 130) was “exhibit anti-tumor activity” and the “progestational activity compared with ethynodiol-3,17-diacetate” value [10] was “about half that of ethynodiol-3,17 -diacetate”.
With `C#C[C@]1(OC(C)=O)CC[C@H]2[C@@H]3CCC4=C[C@@H](OC(=O)N(CCCl)N=O)CC[C@@H]4[C@H]3CC[C@@]21C` [ethynodiol-17β-acetate-3β-N-(2-chloroethyl)-N-nitroso carbamate] the anti-tumor activity [4] was “exhibit anti-tumor activity”, the anti-tumor activity (Hepatoma AH 130) was “exhibit anti-tumor activity” and the “progestational activity compared with ethynodiol-3,17-diacetate” value [10] was “about half that of ethynodiol-3,17 -diacetate”.
For `CC(C)COC(=O)N(CCCl)N=O` [(CH3)2 CHCH2 --], the LD50 [1] is given as 7 mg/kg, the “activity against Walker 256” value (Walker 256) is given as “inactive” and the “activity against lymphoid leukemia (L 1210)” value [2] is given as “inactive”.
In the case of `C[C@]12C=CC(=O)C=C1CC[C@@H]1[C@@H]2[C@@H](O)C[C@@]2(C)[C@H]1CC[C@]2(O)C(=O)COC(=O)N(CCCl)C(=O)N(CCCl)N=O` [prednisolone-21-/N^2,N^4-bis (2-chloroethyl)-N^4-nitroso allophanate/], the “effect on L 1210” value [3] is reported as “show a significant effect”, the anti-tumor activity [4] is reported as “exhibit anti-tumor activity” and the anti-tumor activity (Hepatoma AH 130) is reported as “exhibit anti-tumor activity”. The “thymolytic activity compared with prednisolone acetate” value [8] was “about the same activity as prednisolone acetate”.
